{
  "source": "patent US8153424B2",
  "about": "“Method of in vitro differentiation of neural stem cells, motor neurons and dopamine neurons from primate embryonic stem cells” (Wisconsin Alumni Research Foundation, priority 2001, dated 2012)",
  "format_in_all_cases": "cell-based, human",
  "key": {"[1]": {"tested_on": "hESC-derived motor neurons", "experiment": "Whole-cell patch-clamp of hESC-derived motor neurons, spontaneous synaptic currents", "conditions": "combination of D-AP5 (40 μM) and CNQX (20 μM)"}, "[2]": {"tested_on": "hESC-derived neuroectodermal cells", "experiment": "Motor neuron induction in adherent culture, immunocytochemistry and HB9 cell counting", "protocol": "hESCs (lines H1 and H9, passages 19 to 42) were cultured and passaged weekly on a feeder layer of irradiated embryonic mouse fibroblasts as described (Thomson et al., supra, 1998). The undifferentiated state of ESCs were confirmed by typical morphology and expression of Oct4 and SSEA4. For neuroectodermal differentiation, hESCs were aggregated for four days and then cultured on an adhesive plastic surface for ten days in F12/DMEM supplemented with N2, heparin (2 ng/ml), and FGF2 (20 ng/ml) or RA (Zhang et al., supra, 2001). […]\nPrimary antibodies used in this study included polyclonal antibodies against neuronal class III βIII-tubulin (Covance Research Products, Richmond, Calif., 1:2000), nestin (Chemicon, Temecula, Calif., 1:750), Sox1 (Chemicon, 1:1000), synapsin I (Calbiochem, Darmstadt, German, 1:500), ChAT (Chemicon, 1:50), and VAChT (Chemicon, 1:1000), Isl½ (S. Pfaff), Otx2 (F. Vaccarino), and Oig2 (M. Nakafuku). […] For identification of electrophysiologically recorded cells, biocytin (Molecular Probes) filled cells were labeled with streptavidin-FITC (sigma, 1:200) and stained for ChAT. […]\nThe population of HB9-expressing cells among total differentiated cells (Hoechst labeled) was counted by a person who was blind to experimental groups either manually using the Metamorph software (Universal Imaging Corporation, Downingtown, Pa.) or by stereological measurement. […]"}, "[3]": {"tested_on": "hESC-derived neuroepithelial cells", "experiment": "Ventral spinal progenitor and motor neuron differentiation in suspension culture, immunocytochemistry, cell counting and FACS", "protocol": "For motor neuron induction, hESC-derived neuroepithelial cells at day 10 were first treated with RA (0.1 μM) for caudalization in a neural medium, which consisted of DMEM/F12 (Gibco), N2 supplement, heparin (Sigma, 2 μg/ml) and cAMP (Sigma, 1 μM). One week later (day 17), the posteriorized neuroectodermal cells were isolated, and suspended in the same neural medium in the presence of RA (0.1 μM) and SHH (100-200 ng/ml; R&D, 1845-SH) for one week. After that (day 24), brain-derived neurotrophic factor (BDNF), glial-derived neurotrophic factor (GDNF) and insulin-like growth factor-1 (IGF1) (10 ng/ml, PeproTech Inc.) were added to the culture. Purmorphamine (Calbiochem) at different concentrations (0.5, 1, 2 and 5 μM) was used instead of SHH in some experiments (see Results).\nImmunohistochemical staining was performed according to Zhang et al., (Zhang et al. (2001), supra). Primary antibodies used in this study included polyclonal antibodies against Olig2 (1:500, Santa Cruz), Ki67 (1:200, Zymed), Otx2 (1:2000, Chemicon) and ChAT (1:200, Chemicon). Antibodies against MNR2 or HB9 (81.5C10) (1:50), Pax7 (1:2000), Nkx2.2 (1:50) and Hoxb4 (1:50) were purchased from Developmental Studies Hybridoma Bank (DSHB, Iowa City, Iowa). Polyclonal Phox2b and Irx3 antibodies were kindly provided by Dr. Jean-François Brunet (CNRS; École Normale Supérieure, Paris) and Dr. Thomas Jessell (Columbia University; New York, N.Y.), respectively. Images were collected using a Spot digital camera mounted onto a Nikon fluorescent microscope 600 (Fryer Inc.; Huntley, Ill.) or a confocal microscope (Nikon; Tokyo, Japan).\nThe population of Olig2 or HB9-expressing cells among total differentiated cells (Hoechst labeled) was counted in two ways, as previously described (Li et al. (2005), supra). Six to twelve clusters in each group were counted and data were expressed as Mean ± SEM. Differences between groups were compared by ANOVA test, and the statistical significance was defined as two-sided (p=0.05).\nCells were harvested using Accutase® (Innovative Cell), gently dissociated to single cells and washed with a FACS buffer (PBS, 0.1% NaN3, 2% donkey serum). After being fixed and permeabilized with ice cold 0.1% paraformaldehyde for 10 minutes and with 90% methanol for 30 minutes, cells Were then incubated in primary antibody (Olig2, goat IgG, 1:500) or a goat IgG control at […]. Cells were then washed and incubated with a corresponding secondary antibody, such as Alexa 488 conjugated, donkey, anti-goat IgG, for 2 hours followed by washing steps. Cells were analyzed by a Becton Dickinson FACSCaliber and analyzed with CellQuest Pro (BD Biosciences)."}, "SHH pathway": {"tested_on": "SHH pathway", "experiment": "RT-PCR of transcription factors in caudalized NE after 1 week of treatment", "protocol": "Total RNA was extracted from motor neuron differentiation cultures using RNA STAT-60 (Tel-Test, Inc.; […] Carlsbad, Calif.) according to the manufacturer's protocol and was used as templates for the PCR reaction. PCR reaction was performed in a 15 μl mixture containing cDNA, primers and 1×PCR Master mix (Promega; Madison, Wis.). The following primers were used: Olig-2,[NT] ID NO:21), [NT] ID NO:22), 315 bp; […] ID NO:23), [NT] ID NO:24), 337 bp; […] ID NO:25), [NT] ID NO:26), 473 bp; […] ID NO:27), [NT] ID NO:28), 459 bp; […] ID NO:31), [NT] ID NO:32), 335 bp; GAPDH, [NT] ID NO:1), [NT] ID NO:2), 450 bp; […] ID NO:33), [NT] ID NO:34), 269 bp; […] ID NO:35), [NT] ID NO:36), 399 bp; […] ID NO:37), [NT] ID NO:38), 352 bp; and Gli1, [NT] ID NO:39), [NT] ID NO:40), 185 bp."}, "[4]": {"tested_on": "hESC-derived neural precursors", "experiment": "BrdU incorporation by dissociated ES cell-derived neural precursors", "conditions": "FGF2 20 ng/ml, EGF 20 ng/ml, LIF 5 ng/ml; each alone", "protocol": "Histochemical and immunohistochemical staining. To better visualize the rosette formations, cultures with rosettes were rinsed with PBS and fixed in 4% paraformaldehyde and 0.25% glutaraldehyde for 1 hour. The fixed cells were then processed for embedding in plastic resin as described (Zhang et al., supra, 1999). The cultured cells were then sectioned in 1-μm thickness and stained with toluidine blue. For immunostaining, the coverslip cultures were immunostained with the following primary antibodies detected by appropriate fluorescent secondary antibodies detailed elsewhere (Zhang et al., supra, 2000; Zhang et al., supra, 1999): anti-nestin (polyclonal, gift of Dr. R. McKay of NINDS, 1:1,000); anti-polysialylated neuronal cell adhesion molecule (PSA-NCAM, mouse IgM, gift of Dr. G. Rougon of University of Marseille, France, 1:200); anti-Musashi-1 (rat IgG, gift of Dr. H. Okano, University of Tokyo, Japan, 1:500); anti-GFAP (polyclonal, Dako, 1:1,000); anti-human GFAP (Sternberg monoclonals, 1:10,000); O4 (mouse IgM, hybridoma supernatant, 1:50); anti-tyrosine hydroxylase (TH, Pel Freez, 1:500). The remaining antibodies were from Sigma: anti-βIII-tubulin (mouse IgG, 1:500); anti-neurofilament (NF) 68 (mouse IgG, 1:1,000); anti-NF 200 (polyclonal, 1:5,000); anti-MAP2ab (mouse IgG, 1:250); anti-γ-aminobutyric acid (GABA, polyclonal, 1:10,000); anti-glutamate (mouse IgG, 1:10,000). For bromodeoxyuridine (BrdU) incorporation, 4 coverslip cultures in each group were incubated with 2 μM of BrdU for sixteen hours before the cultures were fixed in 4% paraformaldehyde, denatured with 1N HCl and processed for immunolabeling and cell counting (Zhang et al., supra, 2000; Zhang et al., supra, 1999)."}},
  "note": "Entries after “also recorded” stand apart in the source; their conditions may differ.",
  "data": [
    {"compound": "N#Cc1cc2c(cc1[N+](=O)[O-])=NC(=O)C(=O)N=2", "note": "[CNQX, 6-cyano-7-nitroquinoxaline-2,3-dione]", "values": [
      {"measurement": "Effect on remaining inward (excitatory) synaptic currents", "setting": "[1]", "value": "blocked"}
    ]},
    {"compound": "N[C@H](CCCP(=O)(O)O)C(=O)O", "note": "[D-AP5, D-2-amino-5-phosphonovaleric acid]", "values": [
      {"measurement": "Effect on remaining inward (excitatory) synaptic currents", "setting": "[1]", "value": "blocked"}
    ]},
    {"compound": "CC1=C(/C=C/C(C)=C/C=C/C(C)=C/C(=O)O)C(C)(C)CCC1", "note": "[RA, retinoic acid]", "values": [
      {"measurement": "RA concentration inducing the highest proportion of HB9+ cells", "setting": "[2]", "value": "0.1 to 1.0", "unit": "µM"},
      {"measurement": "RA dose resulting in degeneration of some cells", "setting": "[2]; chemically defined adherent cultures", "value": "over 1.0 μM"}
    ]},
    {"compound": "c1ccc2c(Oc3nc(Nc4ccc(N5CCOCC5)cc4)c4ncn(C5CCCCC5)c4n3)cccc2c1", "note": "[purmorphamine]", "values": [
      {"measurement": "Time of treatment until Olig2+ cells first observed", "setting": "[3]; after isolating NE cells (day 22 of hESC differentiation), a few days earlier than SHH/RA", "value": "≤ 5", "unit": "days"},
      {"measurement": "Olig2+ cells (highest percentage)", "setting": "[3]; purmorphamine 1 μM with RA, 3.5 weeks, confirmed by FACS", "value": "around 40%"},
      {"measurement": "Olig2 expression in progenitors", "setting": "[3]; purmorphamine 0.5, 1 and 2 uM in the presence of RA 0.1 μM, 3.5 weeks", "value": "robustly induced; also recorded: dose-dependent manner"},
      {"measurement": "Induction of Olig2+ or HB9+ cells", "setting": "[3]; purmorphamine alone (without RA) from day 17", "value": "not sufficient"},
      {"measurement": "Expression of Olig2 and HB9", "setting": "[3]; purmorphamine with RA, 4.5 week", "value": "over 40%"},
      {"measurement": "Olig2+ motor neuron progenitors and HB9+ motor neurons of differentiated population", "setting": "[3]; purmorphamine with RA, 4.5 weeks of hESC differentiation", "value": "at least 80%"},
      {"measurement": "HB9+ motor neurons also positive for ChAT", "setting": "[3]; purmorphamine, attachment on coverslips and another week of differentiation", "value": "most"},
      {"measurement": "Expression pattern of class II factors (Nkx6.1, Nkx2.2) compared with SHH", "setting": "SHH pathway; 1 week of purmorphamine treatment", "value": "almost identical expression pattern"},
      {"measurement": "mRNA for Gli1", "setting": "SHH pathway; 1 week of treatment", "value": "increased levels"}
    ]},
    {"compound": "EGF: epidermal growth factor (NSDSECPLSHDGYCLHDGVCMYIEALDKYACNCVVGYIGERCQYRDLKWWELR; Epidermal growth factor; UniProt P01133 971-1023, looked up)", "values": [
      {"measurement": "BrdU incorporation (stimulation of precursor cell proliferation)", "setting": "[4]", "value": "could not be elicited"}
    ]},
    {"compound": "LIF: leukemia inhibitory factor", "values": [
      {"measurement": "BrdU incorporation (stimulation of precursor cell proliferation)", "setting": "[4]", "value": "could not be elicited"}
    ]}
  ]
}
